{
  "source": "paper PMC8290231",
  "about": "(Cancer Medicine, 2021)",
  "key": {"FGFR2‐N550K": {"target": "T1, FGFR2‐N550K (Homo sapiens, UniProt P21802, N549K)", "T1 construct": "purchased KINOMEscan™ (commercial assay)", "T1 sequence (P21802 22-822 isoform P21802-3 N550K limits assumed)": "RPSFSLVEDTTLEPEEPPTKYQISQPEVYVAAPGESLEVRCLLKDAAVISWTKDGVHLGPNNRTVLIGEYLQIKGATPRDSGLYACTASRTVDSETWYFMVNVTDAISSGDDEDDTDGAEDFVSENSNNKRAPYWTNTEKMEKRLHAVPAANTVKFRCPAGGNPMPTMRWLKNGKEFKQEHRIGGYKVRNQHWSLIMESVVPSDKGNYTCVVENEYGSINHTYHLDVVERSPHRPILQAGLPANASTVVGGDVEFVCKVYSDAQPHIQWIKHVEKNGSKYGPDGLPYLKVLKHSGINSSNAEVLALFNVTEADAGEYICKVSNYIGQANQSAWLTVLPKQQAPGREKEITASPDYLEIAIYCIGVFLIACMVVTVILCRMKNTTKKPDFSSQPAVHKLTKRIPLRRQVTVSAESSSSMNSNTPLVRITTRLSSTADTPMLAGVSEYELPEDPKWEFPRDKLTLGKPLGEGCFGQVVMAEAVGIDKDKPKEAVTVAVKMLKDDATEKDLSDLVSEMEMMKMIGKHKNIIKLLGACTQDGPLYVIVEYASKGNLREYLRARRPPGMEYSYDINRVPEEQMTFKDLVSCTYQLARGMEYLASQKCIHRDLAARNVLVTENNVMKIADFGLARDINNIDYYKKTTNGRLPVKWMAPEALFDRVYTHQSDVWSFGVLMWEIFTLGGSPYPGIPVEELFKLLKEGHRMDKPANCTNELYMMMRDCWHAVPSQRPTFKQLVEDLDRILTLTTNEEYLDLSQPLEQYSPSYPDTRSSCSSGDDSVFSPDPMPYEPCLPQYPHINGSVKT", "assay": "KINOMEscan binding affinity assay"}, "[1]": {"test_system": "Ba/F3 stable cells (FGFR1‐V561F/M and other mutant)", "assay": "CCK-8 proliferation, Ba/F3 stable cells with FGFR1 and mutants (summary)", "assay_type": "cell-based", "details": "Mus musculus, BaF3; range over Ba/F3 stable cells", "description": "The Ba/F3 cell lines stably expressing FGFR1, FGFR1‐V561M, FGFR1‐V561F, FGFR1‐K656N, and FGFR1‐K656E were self‐established through electroporation pCDNA3.1‐TEL plasmids using the Amaxa Cell Line Nucleofector Kit V (Lonza, Cologne, Germany). Stable cell lines were selected by G418 (Merck, USA) and then withdrawal of IL‐3 (R&D). […] Parental Ba/F3 cells were maintained in RPMI 1640 supplemented with 10% FBS, 100 U/ml of penicillin, […] of streptomycin, and 10 ng/ml of IL‐3, while all Ba/F3 stable cell lines were cultured in the same medium without IL‐3.\nCells were seeded in 96‐well plate in complete medium (1000–6000 cells/well) and cultured for overnight. Then the cells were exposed to gradient concentrations (0.0005–10 μM) of compounds. Cell proliferation was analyzed by Cell Counting Kit 8 (CK04, Dojindo Laboratories, Japan) after co‐incubation for a further 72 h. IC50 values were calculated by fitting of concentration–response curves using GraphPad Prism 8.01 software. Each assay was repeated at least three times.\nThere is, however, no commercially available FGFR1 mutant kinase to validate this. Therefore, we constructed Ba/F3 model cells stably expressing FGFR1‐WT, K656E, K656N, V561M, and V561F mutations."}},
  "data": [
    {"smiles": "Cc1ccc(C(=O)Nc2ccc(CN3CCN(C)CC3)c(C(F)(F)F)c2)cc1C#Cc1cnc2[nH]ncc2c1", "note": "[GZD824]", "values": [
      {"measurement": "Kd", "setting": "FGFR2‐N550K", "result": "17 ± 5.7", "unit": "nM"},
      {"measurement": "IC50", "setting": "[1]", "result": "8.1 to 55", "unit": "nM"}
    ]}
  ]
}
